# According to US10786503B2, “Treatment of adipocytes” (Melior Pharmaceuticals I, Inc., priority 2017, dated 2020):
# Legend:
# [1] = Phase 2a clinical trial of Compound 102 (fasting plasma glucose, body weight); type: in vivo, human
# Experimental: This Phase 2a clinical trial was conducted in the U.S. (103 subjects) and Korea (27 subjects). […] Subjects were treated with one of four active doses (100 mg once-daily (qd), 100 mg twice-daily (bid), 200 mg qd, or 200 mg bid) of Compound 102 or placebo for 4 weeks after having 3 weeks of placebo run-in. […] Body weights, as secondary endpoints, were measured at Day 1 and Day 29 and at the follow-up visit 1 week after treatment stopped, at Day 35. […] The effect was most pronounced in the U.S. subjects and in the 100 qd dose group.
# [2] = test system: human adipocytes; assay: Beige adipocyte gene expression by RT-PCR in primary cultured human adipocytes; type: cell-based
# Experimental: (§1) Human adipocyte precursor cells isolated from subcutaneous abdominal fat were purchased from LaCell, LLC, New Orleans, La. Cells were seeded and grown to confluence in DMEM/F12 with 10% heat inactivated FBS. Differentiation to mature adipocytes was induced in medium composed of 70% DMEM and 30% DMEMF12 supplemented with 3% FBS, 1 μM dexamethasone (Sigma D4902), […] biotin (Sigma B4639), 100 nM insulin (Sigma 15500), 20 μM pantothenate (Sigma P5155), 5 μM rosiglitazone (AK Scientific F325) and […] (Sigma 15879) for four days. Cells were maintained in medium composed of 70% DMEM and 30% DMEMF12 supplemented with 3% FBS, 1 μM dexamethasone, 33 μM biotin, 100 nM insulin, and 20 NM pantothenate for seven days before experimental treatment.
# A solution of 10 mM Compound 102 was prepared in DMSO and diluted to 60 μM or 30 μM in maintenance medium without dexamethasone for cell treatment. […]
# (§2) Total RNA was isolated from adipocyte cultures grown in 12-well plates using Trizol and Qiagen RNAeasy kits. Reverse transcriptase and PCR were conducted in one reaction with the reverse PCR primer priming cDNA synthesis using SuperScript® III Platinum® One-Step Quantitative RT-PCR System with Rox from Invitrogen (11745). Predesigned Taqman primer-probe sets were purchased from Applied Biosystems for the following human transcript sequences: UCP1 (Hs249211), PPARGC1α (HS527078), PPARU (Hs103110), CPT1b (Hs439777), and GLUT4/SLC2A4 (Hs380691). Aplicons were designed to span an intron-exon junction to avoid amplification of genomic sequences. Each sample RT-PCR assay was conducted in duplicate.
# [3] = test system: primary cultured human adipocytes; assay: GLUT4 and UCP1 protein expression in primary cultured human adipocytes; type: cell-based; details: 7-day treatment period
# Experimental: as §1
# A solution of 10 mM Compound 102 was prepared in DMSO and diluted to 60 μM or 30 μM in maintenance medium without dexamethasone for cell treatment. In some experiments, cells were treated with 20 μM menthol (Sigma M2772).
# [4] = test system: UCP-1 adipose tissue protein; assay: UCP-1 adipose tissue protein in db/db mice (Western blot densitometry); type: in vivo; details: 100 mg/kg qd for 3 weeks, tissue 4 hours after last dose, FIG. 10
# Experimental: Adipose tissue was collected 4 hours after the last dose of Compound 102.
# [5] = Rodent oral glucose tolerance test; type: in vivo; details: FIG. 13
# Excerpt: In contrast, menthol potentiates the insulin sensitizing action of Compound 102 in a rodent oral glucose tolerance test.
# [6] = test system: Compound 102-induced UCP1 expression; assay: Effect of inhibitors on Compound 102-induced UCP1 expression; type: cell-based, human; details: over 4 days; LY294002 20 NM, H89 20 μM; FIG. 9
# Experimental: as §1
# as §2, with “Each sample RT-PCR assay was conducted in duplicate.” left out
# [7] = human adipocytes, day 4, FIG. 3
smiles,measurement,setting,value
"Cc1cccc(Oc2c[nH]c(=O)[nH]c2=O)c1 [Compound 102, 5-(m-tolyloxy)pyrimidine-2,4(1H,3H)-dione]",body weight loss over the 4-week treatment period,"[1]; Day 1 to Day 29, secondary endpoint",statistically significant improvements in body weight loss
same,body weight 1 week after treatment (Day 35) compared to Day 29,"[1]; follow-up 1 week after treatment stopped, FIG. 2",all groups except for the 200 mg bid group showed continued loss
same,fasting plasma glucose (FPG),"[1]; subjects with HbA1c 7-10%, 100 mg qd, 100 mg bid, 200 mg qd or 200 mg bid for 4 weeks, FIG. 1",progressive reduction
same,GLUT4 mRNA,"[2]; 7-day treatment period, FIG. 4",continued to increase
same,UCP1 mRNA,"[2]; 7-day treatment period, FIG. 4",continued to increase
same,expression of the UCP1 activator PGC-1β,[2]; FIG. 7,induced
same,expression of the UCP1 activator PPARα,[2]; FIG. 7,induced
same,expression of TRPM8 menthol receptor mRNA,[2]; FIG. 8,induced
same,expression of Adipose Triglyceride Lipase (ATGL),[2]; [7],significant increases
same,expression of Carnitine palmitoyltransferase-Ib (CPT-1b),[2]; [7],significant increases
same,expression of GLUT4,[2]; [7],significant increases
same,expression of Transient Potential Melastatin 8 Receptor (TRPM8R),[2]; [7],significant increases
same,expression of UCP-1,[2]; [7],significant increases
same,expression of GLUT4 protein,[3]; FIG. 5,continued to exist
same,expression of UCP1 protein,[3]; FIG. 6,continued to exist
same,levels of UCP-1 adipose tissue protein,[4],Increased levels
"CC1CCC(C(C)C)C(O)C1 (centres unmarked) [menthol, reference compound]",UCP1 expression,"[2]; 7 day treatment, 30 μM menthol, 30 NM Compound 102, versus Compound 102 alone, FIG. 12 panel a",did not induce expression
same,insulin sensitization or glycemic control,[5],does effect insulin sensitization or glycemic control
COc1cc(CN(CCN)C(=O)OC(C)c2ccccc2)ccc1OCc1ccccc1 (centres unmarked) [PBMC],Compound 102-induced UCP1 mRNA in presence of inhibitor,[6],reduced UCP1 mRNA to levels of unstimulated controls or lower
O=S(=O)(NCCNC/C=C/c1ccc(Br)cc1)c1cccc2cnccc12 [Compound H89],Compound 102-induced UCP1 mRNA in presence of inhibitor,[6],reduced UCP1 mRNA to levels of unstimulated controls or lower
